Results published in patent US20220008359A1, “COMBINATION ANTI-CANCER PRODUCTS AND METHODS” (priority 2020, published 2022).
Marks after values point to notes of the source that are not given here.

Test system: MCF7 cells
Assay: Immuno-staining of protein expression and protein phosphorylation, MCF7 cells
Assay type: cell-based
Parameters: ATM level / P-AMPKa level / P-317 (ULK1) level / ATG5 level / HDAC8 level / BIM level: scale not given here
Method: ZR75-1 and MCF7 cells were treated with vehicle control, GZ17-6.02, Palbociclib or the drugs combined for 3 hours and for 6 hours. Cells were fixed in place and immuno-staining performed with in house validated antibodies to detect protein expression and protein phosphorylation.

CC(=O)c1c(C)c2cnc(Nc3ccc(N4CCNCC4)cn3)nc2n(C2CCCC2)c1=O [PALBO, Palbociclib]
AKT level (MCF7, 3 h): 100
AMPKa level (MCF7, 3 h): 102
ATG5 level (MCF7, 3 h): 107
ATG13 level (MCF7, 3 h): 100
ATM level (MCF7, 3 h): 100
BAK level (MCF7, 3 h): 95
BAX level (MCF7, 3 h): 103
BCL-XL level (MCF7, 3 h): 99
BIM level (MCF7, 3 h): 109
Beclin1 level (MCF7, 3 h): 113#
CD95 level (MCF7, 3 h): 101
CHOP level (MCF7, 3 h): 112
Cyclin D level (MCF7, 3 h): 104
Cyclin E level (MCF7, 3 h): 104
ER level (MCF7, 3 h): 99
ERBB1 level (MCF7, 3 h): 99
ERBB2 level (MCF7, 3 h): 100
ERBB3 level (MCF7, 3 h): 101
ERK1/2 level (MCF7, 3 h): 100
ERK2 level (MCF7, 3 h): 100
ERRB4 level (MCF7, 3 h): 99
FAS-L level (MCF7, 3 h): 108
GRP78 level (MCF7, 3 h): 114#
HDAC1 level (MCF7, 3 h): 100
HDAC2 level (MCF7, 3 h): 94
HDAC3 level (MCF7, 3 h): 97
HDAC4 level (MCF7, 3 h): 99
HDAC5 level (MCF7, 3 h): 99
HDAC6 level (MCF7, 3 h): 100
HDAC7 level (MCF7, 3 h): 100
HDAC8 level (MCF7, 3 h): 100
HDAC9 level (MCF7, 3 h): 99
HDAC10 level (MCF7, 3 h): 99
HDAC11 level (MCF7, 3 h): 100
IDO1 level (MCF7, 3 h): 97
JAK2 level (MCF7, 3 h): 99
JNK1/2 level (MCF7, 3 h): 100
LATS1/2 level (MCF7, 3 h): 100
MCL1 level (MCF7, 3 h): 95
MHCA level (MCF7, 3 h): 102
NEDD4 level (MCF7, 3 h): 96
NFkB level (MCF7, 3 h): 101
ODC level (MCF7, 3 h): 103
P-89 (TAZ) level (MCF7, 3 h): 105
P-109 (YAP) level (MCF7, 3 h): 106
P-127 (YAP) level (MCF7, 3 h): 102
P-317 (ULK1) level (MCF7, 3 h): 109
P-397 (YAP) level (MCF7, 3 h): 96
P-757 (ULK1) level (MCF7, 3 h): 98
P-909 (LATS1/2) level (MCF7, 3 h): 99
P-1079 (LATS1/2) level (MCF7, 3 h): 109
P-AMPKa level (MCF7, 3 h): 112
P-ATG13 level (MCF7, 3 h): 116#
P-ATM level (MCF7, 3 h): 105
P-ERBB1 level (MCF7, 3 h): 100
P-ERBB2 level (MCF7, 3 h): 99
P-ERBB3 level (MCF7, 3 h): 111
P-ERBB4 level (MCF7, 3 h): 102
P-ERK level (MCF7, 3 h): 101
P-JAK2 level (MCF7, 3 h): 101
P-JNK level (MCF7, 3 h): 89
P-KIT level (MCF7, 3 h): 100
P-MET level (MCF7, 3 h): 100
P-NFkB level (MCF7, 3 h): 100
P-PDGFRb level (MCF7, 3 h): 103
P-PERK level (MCF7, 3 h): 109
P-S2448 (mTOR) level (MCF7, 3 h): 98
P-S2481 (mTOR) level (MCF7, 3 h): 98
P-T308 (AKT) level (MCF7, 3 h): 96
P-Y694 (STAT5) level (MCF7, 3 h): 98
P-Y705 (STAT3) level (MCF7, 3 h): 98
P-eIF2a level (MCF7, 3 h): 107
P-p38 level (MCF7, 3 h): 97
P-p70 T389 level (MCF7, 3 h): 105
PD-L1 level (MCF7, 3 h): 100
PD-L2 level (MCF7, 3 h): 100
PDGFRb level (MCF7, 3 h): 100
PERK level (MCF7, 3 h): 101
PP1 level (MCF7, 3 h): 98
PTEN level (MCF7, 3 h): 103
STAT3 level (MCF7, 3 h): 100
STAT5 level (MCF7, 3 h): 100
TAZ level (MCF7, 3 h): 101
ULK1 level (MCF7, 3 h): 100
Y416 (c-SRC) level (MCF7, 3 h): 100
Y527 (c-SRC) level (MCF7, 3 h): 98
YAP level (MCF7, 3 h): 99
c-KIT level (MCF7, 3 h): 100
c-MET level (MCF7, 3 h): 91
c-SRC level (MCF7, 3 h): 100
eIF2a level (MCF7, 3 h): 99
mTOR level (MCF7, 3 h): 100
p38 level (MCF7, 3 h): 101
p70 S6K level (MCF7, 3 h): 99
AKT level (MCF7, 6 h): 100
AMPKa level (MCF7, 6 h): 100
ATG5 level (MCF7, 6 h): 114#
ATG13 level (MCF7, 6 h): 101
ATM level (MCF7, 6 h): 99
BAK level (MCF7, 6 h): 109
BAX level (MCF7, 6 h): 95
BCL-XL level (MCF7, 6 h): 94
BIM level (MCF7, 6 h): 113#
Beclin1 level (MCF7, 6 h): 117#
CD95 level (MCF7, 6 h): 100
CHOP level (MCF7, 6 h): 116#
Cyclin D level (MCF7, 6 h): 108
Cyclin E level (MCF7, 6 h): 104
ER level (MCF7, 6 h): 91
ERBB1 level (MCF7, 6 h): 101
ERBB2 level (MCF7, 6 h): 100
ERBB3 level (MCF7, 6 h): 100
ERK1/2 level (MCF7, 6 h): 100
ERK2 level (MCF7, 6 h): 100
ERRB4 level (MCF7, 6 h): 100
FAS-L level (MCF7, 6 h): 111
GRP78 level (MCF7, 6 h): 115#
HDAC1 level (MCF7, 6 h): 99
HDAC2 level (MCF7, 6 h): 95
HDAC3 level (MCF7, 6 h): 101
HDAC4 level (MCF7, 6 h): 102
HDAC5 level (MCF7, 6 h): 98
HDAC6 level (MCF7, 6 h): 101
HDAC7 level (MCF7, 6 h): 101
HDAC8 level (MCF7, 6 h): 101
HDAC9 level (MCF7, 6 h): 100
HDAC10 level (MCF7, 6 h): 99
HDAC11 level (MCF7, 6 h): 99
IDO1 level (MCF7, 6 h): 96
JAK2 level (MCF7, 6 h): 100
JNK1/2 level (MCF7, 6 h): 100
LATS1/2 level (MCF7, 6 h): 100
MCL1 level (MCF7, 6 h): 91
MHCA level (MCF7, 6 h): 103
NEDD4 level (MCF7, 6 h): 97
NFkB level (MCF7, 6 h): 100
ODC level (MCF7, 6 h): 101
P-89 (TAZ) level (MCF7, 6 h): 103
P-109 (YAP) level (MCF7, 6 h): 104
P-127 (YAP) level (MCF7, 6 h): 104
P-317 (ULK1) level (MCF7, 6 h): 113#
P-397 (YAP) level (MCF7, 6 h): 99
P-757 (ULK1) level (MCF7, 6 h): 98
P-909 (LATS1/2) level (MCF7, 6 h): 99
P-1079 (LATS1/2) level (MCF7, 6 h): 112
P-AMPKa level (MCF7, 6 h): 117#
P-ATG13 level (MCF7, 6 h): 118#
P-ATM level (MCF7, 6 h): 109
P-ERBB1 level (MCF7, 6 h): 100
P-ERBB2 level (MCF7, 6 h): 100
P-ERBB3 level (MCF7, 6 h): 114#
P-ERBB4 level (MCF7, 6 h): 106
P-ERK level (MCF7, 6 h): 99
P-JAK2 level (MCF7, 6 h): 100
P-JNK level (MCF7, 6 h): 90
P-KIT level (MCF7, 6 h): 100
P-MET level (MCF7, 6 h): 96
P-NFkB level (MCF7, 6 h): 99
P-PDGFRb level (MCF7, 6 h): 105
P-PERK level (MCF7, 6 h): 103
P-S2448 (mTOR) level (MCF7, 6 h): 98
P-S2481 (mTOR) level (MCF7, 6 h): 96
P-T308 (AKT) level (MCF7, 6 h): 107
P-Y694 (STAT5) level (MCF7, 6 h): 98
P-Y705 (STAT3) level (MCF7, 6 h): 98
P-eIF2a level (MCF7, 6 h): 110
P-p38 level (MCF7, 6 h): 100
P-p70 T389 level (MCF7, 6 h): 110
PD-L1 level (MCF7, 6 h): 98
PD-L2 level (MCF7, 6 h): 98
PDGFRb level (MCF7, 6 h): 99
PERK level (MCF7, 6 h): 101
PP1 level (MCF7, 6 h): 99
PTEN level (MCF7, 6 h): 103
STAT3 level (MCF7, 6 h): 100
STAT5 level (MCF7, 6 h): 100
TAZ level (MCF7, 6 h): 100
ULK1 level (MCF7, 6 h): 100
Y416 (c-SRC) level (MCF7, 6 h): 101
Y527 (c-SRC) level (MCF7, 6 h): 103
YAP level (MCF7, 6 h): 99
c-KIT level (MCF7, 6 h): 102
c-MET level (MCF7, 6 h): 99
c-SRC level (MCF7, 6 h): 101
eIF2a level (MCF7, 6 h): 100
mTOR level (MCF7, 6 h): 100
p38 level (MCF7, 6 h): 103
p70 S6K level (MCF7, 6 h): 100
P-ERBB3 level (MCF7, 6 h, listed as Palbo): 114
